From ChEMBL document CHEMBL1201862, “PubChem BioAssay data set” (2004)
Blank lines part the entries; values can stand above or below the compound they belong to. The source made the active and inactive calls.

Tests used:
[1] = molecular target: Neuropeptide Y receptor type 1 (Homo sapiens, UniProt P25929); format: functional;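 further: HEK293 cells with a CNG channel challenged with NPY then isoproterenol; potency as antagonist that reverses NPY suppression of cAMP signal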
[2] = molecular target: Neuropeptide Y receptor type 2 (Homo sapiens, UniProt P49146); format: functional, cell-based;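 further: HEK293 cells expressing the receptor and a CNG channel; stimulus was NPY near EC95 followed by isoproterenol to raise cAMP; antagonist potency measured as restoring cAMP signal that NPY suppresses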
Sequence of Neuropeptide Y receptor type 2 (P49146 whole entry): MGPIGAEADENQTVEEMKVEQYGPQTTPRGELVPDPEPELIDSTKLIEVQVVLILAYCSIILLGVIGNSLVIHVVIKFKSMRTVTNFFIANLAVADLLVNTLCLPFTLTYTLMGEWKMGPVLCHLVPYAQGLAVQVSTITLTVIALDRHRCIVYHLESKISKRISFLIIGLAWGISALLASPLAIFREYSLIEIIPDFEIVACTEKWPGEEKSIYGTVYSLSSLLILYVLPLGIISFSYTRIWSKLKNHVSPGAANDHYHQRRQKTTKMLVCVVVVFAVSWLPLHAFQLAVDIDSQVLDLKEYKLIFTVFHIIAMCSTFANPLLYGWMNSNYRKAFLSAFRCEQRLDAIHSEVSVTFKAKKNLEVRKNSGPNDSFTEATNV

[3] = tested on: HeLa; assay: Cytotoxicity counterscreen assay for transcriptional activators of heat shock protein 70 (Hsp70). [Related pubchem assays: 1203, 1252 ]; format: functional; details: Homo sapiens;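 further: cells exposed to compound for 16 hours before readout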
[4] = molecular target: G2/mitotic-specific cyclin-B1 (Homo sapiens, UniProt P14635); assay: Counterscreen assay for inhibitors of Wee1 degradation: dose response cell-based assay to identify inhibitors of cyclin B degradation. [Related pubchem assays: 1410, 1321 ]; format: functional
Sequence of G2/mitotic-specific cyclin-B1 (P14635 whole entry): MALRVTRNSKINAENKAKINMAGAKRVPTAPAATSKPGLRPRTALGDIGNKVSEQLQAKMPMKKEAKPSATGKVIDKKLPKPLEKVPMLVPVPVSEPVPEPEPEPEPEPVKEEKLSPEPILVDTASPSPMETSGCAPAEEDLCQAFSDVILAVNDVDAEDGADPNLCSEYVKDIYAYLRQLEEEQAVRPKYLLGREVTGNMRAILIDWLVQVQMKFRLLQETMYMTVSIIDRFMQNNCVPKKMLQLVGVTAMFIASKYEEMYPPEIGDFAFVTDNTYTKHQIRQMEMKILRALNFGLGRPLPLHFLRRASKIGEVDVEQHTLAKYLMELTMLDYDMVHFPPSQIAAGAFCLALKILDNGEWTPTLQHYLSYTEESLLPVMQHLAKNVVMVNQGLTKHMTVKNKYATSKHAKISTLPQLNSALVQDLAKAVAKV

[5] = molecular target: Wee1-like protein kinase (Homo sapiens, UniProt P30291); assay: Dose Response Cell-based Assay for Inhibitors of Wee1 Degradation. [Related pubchem assays: 1410, 1321 ]; format: functional
Sequence of Wee1-like protein kinase (P30291 whole entry): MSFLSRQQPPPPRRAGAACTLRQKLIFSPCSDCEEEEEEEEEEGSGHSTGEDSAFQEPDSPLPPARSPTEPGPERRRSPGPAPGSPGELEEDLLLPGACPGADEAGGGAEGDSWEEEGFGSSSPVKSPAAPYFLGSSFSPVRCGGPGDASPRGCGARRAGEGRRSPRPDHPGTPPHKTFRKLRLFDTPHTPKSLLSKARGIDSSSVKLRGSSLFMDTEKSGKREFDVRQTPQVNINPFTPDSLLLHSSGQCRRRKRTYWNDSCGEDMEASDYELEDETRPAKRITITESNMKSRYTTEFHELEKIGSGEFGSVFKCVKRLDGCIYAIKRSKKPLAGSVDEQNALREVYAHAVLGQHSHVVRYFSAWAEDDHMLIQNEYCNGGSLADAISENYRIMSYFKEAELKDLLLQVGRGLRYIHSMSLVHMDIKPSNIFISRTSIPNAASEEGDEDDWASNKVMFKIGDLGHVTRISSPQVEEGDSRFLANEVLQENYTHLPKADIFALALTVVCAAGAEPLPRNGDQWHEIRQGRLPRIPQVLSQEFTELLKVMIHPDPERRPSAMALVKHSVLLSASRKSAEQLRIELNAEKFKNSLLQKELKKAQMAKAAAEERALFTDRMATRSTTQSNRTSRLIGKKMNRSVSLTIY

[6] = molecular target: Mitogen-activated protein kinase 10 (Homo sapiens, UniProt P53779); assay: Dose response biochemical screening assay for inhibitors of c-Jun N-Terminal Kinase 3 (JNK3). [Related pubchem assays: 746 ]
Sequence of Mitogen-activated protein kinase 10 (P53779 whole entry): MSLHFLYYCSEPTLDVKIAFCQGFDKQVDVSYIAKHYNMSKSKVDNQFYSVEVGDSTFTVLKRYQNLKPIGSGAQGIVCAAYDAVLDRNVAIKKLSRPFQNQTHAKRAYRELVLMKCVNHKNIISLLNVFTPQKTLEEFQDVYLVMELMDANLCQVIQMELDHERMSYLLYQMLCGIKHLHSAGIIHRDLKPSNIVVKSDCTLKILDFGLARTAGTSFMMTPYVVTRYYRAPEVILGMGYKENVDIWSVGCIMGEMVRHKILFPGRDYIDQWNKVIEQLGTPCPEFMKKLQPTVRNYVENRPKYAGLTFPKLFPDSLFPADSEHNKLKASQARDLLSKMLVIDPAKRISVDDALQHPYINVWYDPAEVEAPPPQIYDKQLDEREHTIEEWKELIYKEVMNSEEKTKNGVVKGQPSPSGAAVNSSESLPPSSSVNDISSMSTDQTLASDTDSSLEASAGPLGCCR

[7] = tested on: Jurkat; assay: antigen receptor-induced NF-kB inhibitors, dose response, Jurkat, luciferase reporter, luminescence, B- and T-cell (AID 489004); format: functional, cell-based; details: Homo sapiens;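 further: NF-kB luciferase reporter Jurkat cells stimulated with PMA plus ionomycin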
[8] = cytotoxicity in HEK-293T NF-kB-Luc cells, dose response, cytotoxicity control for B/T-cell NF-kB inhibitor project, cell-based, uHTS hits (AID 489019); format: functional;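 further: IC50 reflects cytotoxicity as loss of cell viability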
[9] = molecular target: T1, Mucolipin-3 (Homo sapiens, UniProt Q8TDD5); assay: Dose response cell-based high-throughput screening assay for agonists of the transient receptor potential channel ML3 (TRPML3). [Related pubchem assays: 1526, 1424, 1448 ]; format: functional
T1 sequence (Q8TDD5 whole entry): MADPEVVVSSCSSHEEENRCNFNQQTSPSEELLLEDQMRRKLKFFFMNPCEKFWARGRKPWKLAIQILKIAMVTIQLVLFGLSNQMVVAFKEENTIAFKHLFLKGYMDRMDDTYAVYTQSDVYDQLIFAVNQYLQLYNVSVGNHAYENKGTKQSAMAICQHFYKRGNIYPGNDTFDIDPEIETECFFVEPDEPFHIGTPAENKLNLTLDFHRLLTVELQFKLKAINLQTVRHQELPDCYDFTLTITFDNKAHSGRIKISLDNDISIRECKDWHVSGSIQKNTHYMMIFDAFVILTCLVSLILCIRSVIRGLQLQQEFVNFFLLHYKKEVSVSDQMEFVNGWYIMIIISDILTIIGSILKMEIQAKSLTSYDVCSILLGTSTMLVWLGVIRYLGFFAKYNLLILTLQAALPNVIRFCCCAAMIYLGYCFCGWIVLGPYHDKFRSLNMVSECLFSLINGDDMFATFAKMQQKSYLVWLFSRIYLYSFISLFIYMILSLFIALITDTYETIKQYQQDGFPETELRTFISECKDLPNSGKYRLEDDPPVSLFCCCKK

[10] = molecular target: T2, Ion channel NompC (Danio rerio, UniProt Q7T1G6); assay: Fluorescence counterscreen assay for TRPML3 agonists: dose response cell-based high-throughput screening assay to identify agonists of the transient receptor potential channel N1 (TRPN1). [Related pubchem assays: 1526, 1424, 1448 ]; format: functional
T2 sequence (Q7T1G6 whole entry): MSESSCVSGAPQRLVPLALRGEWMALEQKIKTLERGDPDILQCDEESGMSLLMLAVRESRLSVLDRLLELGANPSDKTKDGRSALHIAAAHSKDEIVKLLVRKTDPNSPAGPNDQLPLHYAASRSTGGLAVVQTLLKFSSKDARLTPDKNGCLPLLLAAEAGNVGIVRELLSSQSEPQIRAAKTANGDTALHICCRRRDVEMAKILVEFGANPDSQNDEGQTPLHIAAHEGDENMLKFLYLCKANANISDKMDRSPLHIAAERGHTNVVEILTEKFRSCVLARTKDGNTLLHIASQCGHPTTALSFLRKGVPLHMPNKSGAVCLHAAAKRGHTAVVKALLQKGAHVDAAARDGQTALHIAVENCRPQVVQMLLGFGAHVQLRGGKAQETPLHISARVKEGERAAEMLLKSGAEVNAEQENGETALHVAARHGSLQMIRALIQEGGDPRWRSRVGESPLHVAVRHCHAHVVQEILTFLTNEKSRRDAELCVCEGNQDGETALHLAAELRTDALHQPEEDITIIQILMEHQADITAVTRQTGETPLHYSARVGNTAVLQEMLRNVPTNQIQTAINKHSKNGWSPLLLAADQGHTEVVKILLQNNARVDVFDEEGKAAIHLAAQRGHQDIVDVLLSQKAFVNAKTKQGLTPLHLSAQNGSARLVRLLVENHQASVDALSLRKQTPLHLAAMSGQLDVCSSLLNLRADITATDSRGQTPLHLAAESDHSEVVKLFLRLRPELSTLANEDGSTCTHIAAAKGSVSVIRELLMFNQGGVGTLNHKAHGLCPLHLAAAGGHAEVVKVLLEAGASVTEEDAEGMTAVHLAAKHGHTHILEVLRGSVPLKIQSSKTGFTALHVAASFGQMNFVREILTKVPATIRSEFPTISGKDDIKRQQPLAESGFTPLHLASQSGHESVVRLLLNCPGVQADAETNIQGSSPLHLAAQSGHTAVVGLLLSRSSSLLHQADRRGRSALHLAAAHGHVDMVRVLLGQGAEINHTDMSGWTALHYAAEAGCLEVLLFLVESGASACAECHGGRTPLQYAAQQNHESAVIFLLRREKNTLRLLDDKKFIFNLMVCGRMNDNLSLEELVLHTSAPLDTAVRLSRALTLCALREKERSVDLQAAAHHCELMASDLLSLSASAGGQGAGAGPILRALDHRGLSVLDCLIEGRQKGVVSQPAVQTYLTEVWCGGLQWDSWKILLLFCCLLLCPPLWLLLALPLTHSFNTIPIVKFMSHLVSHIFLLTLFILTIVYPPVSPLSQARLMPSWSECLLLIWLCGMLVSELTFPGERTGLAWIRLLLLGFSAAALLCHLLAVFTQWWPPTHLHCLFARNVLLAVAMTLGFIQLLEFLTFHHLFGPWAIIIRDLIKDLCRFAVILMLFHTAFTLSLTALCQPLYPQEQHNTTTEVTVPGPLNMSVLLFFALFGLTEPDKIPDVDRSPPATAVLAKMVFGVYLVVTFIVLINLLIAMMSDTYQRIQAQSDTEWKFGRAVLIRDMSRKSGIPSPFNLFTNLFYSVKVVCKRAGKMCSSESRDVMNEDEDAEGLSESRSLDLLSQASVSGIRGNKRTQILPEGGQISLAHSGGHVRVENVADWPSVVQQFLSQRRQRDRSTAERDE

[11] = molecular target: T1, Mucolipin-3; assay: TRPML3 and TRPML2 channel agonists, cell-based, patch clamp, Fura-2 profiling panel, panel member TRPML3 Dose Response (AID 2116)
[12] = molecular target: T2, Ion channel NompC; assay: TRPML3 and TRPML2 channel agonists, cell-based, patch clamp, Fura-2 profiling panel, panel member TRPN1 Dose Response (AID 2116)

Sequence of Neuropeptide Y receptor type 1 (P25929 whole entry): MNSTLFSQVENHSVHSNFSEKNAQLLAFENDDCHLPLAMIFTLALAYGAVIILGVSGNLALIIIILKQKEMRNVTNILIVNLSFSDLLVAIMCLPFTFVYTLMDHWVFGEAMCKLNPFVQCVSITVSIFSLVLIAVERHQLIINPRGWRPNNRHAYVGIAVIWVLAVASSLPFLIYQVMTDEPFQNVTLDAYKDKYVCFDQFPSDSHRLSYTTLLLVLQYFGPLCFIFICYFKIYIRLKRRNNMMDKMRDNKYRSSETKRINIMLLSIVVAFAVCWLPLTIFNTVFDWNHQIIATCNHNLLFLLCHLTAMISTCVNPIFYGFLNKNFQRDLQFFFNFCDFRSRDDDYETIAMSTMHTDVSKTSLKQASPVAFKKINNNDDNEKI

IC50 [1]: 13.6 µM (not active)
IC50 [2]: 17.5 µM (not active)
SMILES: CN1CCC(Oc2ccccc2Sc2ccccc2)CC1

SMILES: CN(Cc1ccco1)C(=O)Cn1nc(-c2ccc(Cl)cc2)ccc1=O
CC50 [3]: > 99 µM (not active)

SMILES: Cc1ccnc(NC(=O)CCCOc2cc(=O)n(C)c3ccccc23)c1
EC50 [4]: > 49.7 µM (not active)
EC50 [5]: 7.87 µM (active)
IC50 [6]: 62.4 µM (not active)
IC50 [7]: 6.22 µM (active)
IC50 [8]: > 80 µM (inactive)

EC50 [9]: 1.43 µM (active)
EC50 [10]: > 29.9 µM (not active)
EC50 [11]: 2 µM (active)
EC50 [12]: > 29.9 µM (inactive)
SMILES: Cc1ccc(N2CCN(S(=O)(=O)N3CCCCC3)CC2)c(C)c1
